Laboratory results published in article PMC9972471, “Calamene-Type Sesqui-, Mero-, and Bis-sesquiterpenoids from Cultures of Heimiomyces sp., a Basidiomycete Collected in Africa” (Journal of Natural Products, 2023).
Converted amounts (≈) assume the structure as drawn. Like-named read-outs stand apart in the source and are kept apart here.

How the values were obtained:
Format in all cases: cell-based
[1] = system: cervix carcinoma cell line KB3.1; experiment: In vitro cytotoxicity assay; conditions: Homo sapiens, KB 3-1, - = no activity, read-out: Half inhibitory concentration (IC50)
Experimental: (§1) Eval uation of cytot ox icity.
(§2) Assessment of in vitro cytotoxicity was performed in 96-well plates, as previously published by Harms et al against the
(§3) mouse fibroblast cell line L929 and the cervix car cinoma cell line KB3.1. […]
(§4) Table S2. Half inhibitory concentration (IC50 i n µM ) .
(§5) The cytotoxicity assay was performed using 1 mg/mL stock solutions of 1 -8 , 13 , 15 and 16. Epo thilon B was tested as positive

[2] = system: Staphylococcus aureus DSM 346; experiment: Serial dilution assay, MIC; conditions: for MIC: Staphylococcus aureus, DSM346, read-out: Minimum inhibitory concentration (MIC)
Experimental: (§6) Figure S3. ECD spectra of 7 .
(§7) Eval uation of anti mi cr obi al acti vity.
(§8) To assess the antimicrobial activity of each compound, a serial dilution assay to ascertain their minimum inhibitory concentration (MIC) against sever al yeast, fungal and bacterial strains was c arried out in 96-well micr otiter plates, as previously described by Har ms et al.
(§9) Table S1. Minimum inhibitory concentration (MIC in µg/mL) for yeast, bacterial and fungal strains.
(§10) The serial dilution assay was performed using 1 mg/mL stock solutions of 1 -8, 13, 15 and 16. As positive control the antimicrobials [ O] Oxytetracyclin , [ G] Gentamycin and [ K] Kanamycin wer e used for bacteria and [N] Nystatin was used for filamentous fungi and yeast.
(§11) (DSM 70572), Pichia anomala (DSM 6766), Candida albicans (DSM 1665), Escherichia coli (DSM 1116), Mycobacterium smegmatis (ATCC 700084), Pseudomonas aeruginosa (DSM PA14), Chromobacterium violaceum (DSM 30191) and Acinetobacter baumannii (DSM 30008).
(§12) (1 picture or pasted object on this page, not shown here)

[3] = system: Rhodotorula glutinis DSM 10134; experiment: Serial dilution assay, MIC; conditions: for MIC: DSM10134, - = no inhibition was observed, read-out: Minimum inhibitory concentration (MIC)
Experimental: as §6, §7, §8, §9, §10, §11, §12

Bacillus subtilis DSM 10 = experiment: Serial dilution assay, MIC; conditions: for MIC: DSM10, - = no inhibition was observed, read-out: Minimum inhibitory concentration (MIC)
Experimental: as §6, §7, §8, §9, §10, §11, §12

Mucor hiemalis DSM 2656 = experiment: Serial dilution assay, MIC
Experimental: as §6, §7, §8, §9, §10, §11, §12

[4] = system: mouse fibroblast cell line L929; experiment: In vitro cytotoxicity assay; conditions: - = no activity, read-out: Half inhibitory concentration (IC50)
Experimental: as §1, §2, §3, §4, §5

[5] = system: human epidermoid carcinoma cell line A431; experiment: Extended cytotoxicity assay; conditions: read-out: Half inhibitory concentration (IC50)
Experimental: as §1
(§13) Assessment of in vitro cytotoxicity was performed in 96-well plates, as previously published by Harms et al against the mouse fibroblast cell line L929 and the cervix car cinoma cell line KB3.1. Heimiomycin D (5 ) was additionally tested against human breast carcinoma cell line MCF-7, human lung carcinoma cell line A549, human ovarian carcinoma cell line SKOV -3, human prostate carcinoma cell line P C-3 and human epidermoid carcinoma cell line A431.
(§14) Table S2. Half inhibitory concentration (IC50 i n µM ) . […]
(§15) Table S3. Half inhibitory concentration (IC50 in µM) of 5 .
(§16) The extended cytotoxicity assay against further cell lines was performed using a 1 mg/mL stock solution of 5 . Epothilon B was tested as positive control.
(§17) Hei mio my cin D (5) Epo B

[6] = system: human breast carcinoma cell line MCF-7; experiment: Extended cytotoxicity assay; conditions: MCF7, read-out: Half inhibitory concentration (IC50)
Experimental: as §1, §13, §14, §15, §16, §17

[7] = system: human ovarian carcinoma cell line SKOV-3; experiment: Extended cytotoxicity assay; conditions: SK-OV-3, read-out: Half inhibitory concentration (IC50)
Experimental: as §1, §13, §14, §15, §16, §17

[8] = system: human prostate carcinoma cell line PC-3; experiment: Extended cytotoxicity assay; conditions: read-out: Half inhibitory concentration (IC50)
Experimental: as §1, §13, §4
(§18) The cytotoxicity assay was performed using 1 mg/mL stock solutions of 1 -8 , 13 , 15 and 16. Epo thilon B was tested as positive […]
(§19) IC50 in µM; - no activity
as §15, §16, §17

[9] = system: human lung carcinoma cell line A549; experiment: Extended cytotoxicity assay; conditions: read-out: Half inhibitory concentration (IC50)
Experimental: as §1, §13, §4, §18, §19, §15, §16, §17

Row | SMILES | IC50 [1] | MIC [2] | MIC (Bacillus subtilis DSM 10) | IC50 [4] | other results
1 | CC(C)[C@H]1CC[C@H](C)C2=C1C=C(C(=O)O)CC2 [compound 7, Heimiocalamene A] | 85.5 µM | 66.6 µg/mL (≈ 284 µM) | 66.6 µg/mL (≈ 284 µM) | – | MIC [3]: 66.6 µg/mL (≈ 284 µM); MIC (Mucor hiemalis DSM 2656; DSM2656, - = no inhibition was observed, read-out: Minimum inhibitory concentration (MIC)): 33.3 µg/mL (≈ 142 µM)
2 | CC(C)[C@H]1CC[C@H](C)c2c(O)c(O)c(CO)c(C3=C(O)C(=O)C4=C(OCc5c(O)c(O)c6c(c54)[C@@H](C(C)C)CC[C@@H]6C)C3=O)c21 [compound 3, Bis-heimiomycin C] | 27.5 µM | 33.3 µg/mL (≈ 53.8 µM) | 16.6 µg/mL (≈ 26.8 µM) | 32.4 µM | –
3 | O=c1cc(O)cc(/C=C/c2ccc(O)c(O)c2)o1 [compound 15, hispidin] | 93.5 µM | – | – | 85.4 µM | –
4 | CC(C)[C@H]1CC[C@H](C)c2c(O)c(O)c3c(c21)C1=C(OC3)C(=O)C2=C(OCc3c(O)c(O)c4c(c32)[C@@H](C(C)C)CC[C@@H]4C)C1=O [compound 4, Bis-heimiomycin D] | 35 µM | – | – | – | –
5 | CC1=C(O)C(=O)C(c2c(C=O)c(O)c(O)c3c2[C@@H](C(C)C)CC[C@@H]3C)=C(O)C1=O [compound 5, Heimiomycin D] | 6.3 µM | 33.3 µg/mL (≈ 83.2 µM) | 33.3 µg/mL (≈ 83.2 µM) | 45 µM | IC50 ([5]; A431): 4.3 µM; IC50 ([5]; Homo sapiens, A-431, A431): 4.25 µM; IC50 [6]: 2.5 µM; IC50 [7]: 3 µM; IC50 [8]: 30 µM; IC50 [9]: 14.3 µM
6 | CC(C)[C@H]1CC[C@H](C)c2c(O)c(O)c(C=O)c(C3=C(O)C(=O)C4=C(OCc5c(O)c(O)c6c(c54)[C@@H](C(C)C)CC[C@@H]6C)C3=O)c21 [compound 2, Bis-heimiomycin B] | 30.8 µM | 33.3 µg/mL (≈ 54 µM) | 16.6 µg/mL (≈ 26.9 µM) | – | –
7 | CN(C)[C@@H]1C(=O)C(C(N)=O)=C(O)[C@@]2(O)C(=O)C3=C(O)c4c(O)cccc4[C@@](C)(O)[C@H]3[C@H](O)[C@@H]12 [Oxytetracyclin, reference compound] | – | – | – | – | Minimum inhibitory concentration (MIC) ([2]; Staphylococcus aureus DSM 346, - = no inhibition was observed): 0.83 µg/mL (≈ 1.8 µM); Minimum inhibitory concentration (MIC) (Bacillus subtilis DSM 10; - = no inhibition was observed): 8.3 µg/mL (≈ 18 µM)
8 | CC(C)[C@H]1CC[C@H](C)c2c(O)c(O)c(C=O)c(C3=C(O)C(=O)C(c4c(C=O)c(O)c(O)c5c4[C@@H](C(C)C)CC[C@@H]5C)=C(O)C3=O)c21 [compound 1, Bis-heimiomycin A] | – | – | 33.3 µg/mL (≈ 52.6 µM) | – | MIC [3]: 66.6 µg/mL (≈ 105 µM)
9 | Cc1c(O)c(O)c(C(C)C)c2c1CCC(C(=O)O)=C2 [compound 8, Heimiocalamene B] | 31.3 µM | – | 66.6 µg/mL (≈ 254 µM) | 37.4 µM | MIC [3]: 66.6 µg/mL (≈ 254 µM)
10 | CC(C)[C@H]1CC[C@H](C)c2c(O)c(O)c(C=O)c(C3=C(O)C(=O)C=C(O)C3=O)c21 [compound 6, Heimiomycin E] | – | 66.6 µg/mL (≈ 172 µM) | 16.6 µg/mL (≈ 43 µM) | 57 µM | –
11 | O=c1cc(O)cc(C2c3c(cc(/C=C/c4ccc(O)c(O)c4)oc3=O)OC2c2ccc(O)c(O)c2)o1 (stereo not drawn) [compound 16, hypholomin B] | – | – | 33.3 µg/mL (≈ 67.9 µM) | – | –
12 | C[C@@H]1[C@H](O)[C@@H](C)/C=C/C=C/CC/C=C/C=C/C=C/C=C/C(O[C@H]2O[C@H](C)[C@@H](O)[C@H](N)[C@@H]2O)CC2O[C@](O)(CC(O)C(O)CCC(O)CC(O)CC(O)CC(=O)O[C@H]1C)CC(O)C2C(=O)O (stereo partly drawn) [Nystatin, reference compound] | – | – | – | – | Minimum inhibitory concentration (MIC) ([3]; - = no inhibition was observed): 4.2 µg/mL (≈ 4.54 µM); Minimum inhibitory concentration (MIC) (Mucor hiemalis DSM 2656; - = no inhibition was observed): 8.3 µg/mL (≈ 8.96 µM)
